Data from patent US20250144067A1, “PERSONALIZED STARVATION THERAPY FOR CANCER” (Faeth Therapeutics, Inc., priority 2021, published 2025).
Structures can show the parent of a compound that is named as a salt. Where two headings read alike, the source gives them in different places.

Tests used:
[1] = tested on: NCI-H292 lung cancer cells; experiment: FDA drug screening, complete media vs cholesterol-free media without statin (TABLE 1); assay type: cell-based, human
[2] = tested on: NCI-H292 lung cancer cells; experiment: FDA drug screening, complete media vs cholesterol-free media with simvastatin (TABLE 2); assay type: cell-based, human
[3] = Complete minus Cholesterol-free, greater than 0 enhanced anti-cancer activity, about 0 neutral, below 0 antagonist
[4] = NCI-H292 cells, FDA drug library screen, cholesterol-free media without statin
[5] = NCI-H292 cells, FDA drug library screen, complete media
[6] = NCI-H292 cells, FDA drug library screen, cholesterol-free media with simvastatin 0.04 μM
[7] = complete media minus cholesterol-free media + simvastatin, >0 enhanced anti-cancer activity, about 0 neutral, <0 antagonist
[8] = Complete minus Cholesterol-free, […]
[9] = NCI-H292 cells, cholesterol-free media without statin
[10] = NCI-H292 cells, drug in cholesterol-free media with simvastatin 0.04 μM
[11] = NCI-H292 cells, drug in complete media
[12] = complete media vs cholesterol-free media + simvastatin (0.04 μM), […]
[13] = NCI-H292 cells, cholesterol-free media without statin, FDA drug library screen
[14] = NCI-H292 cells, complete media, FDA drug library screen
[15] = complete vs cholesterol-free media, […]
[16] = NCI-H292 cells, FDA library drug in cholesterol-free media with simvastatin 0.04 μM
[17] = NCI-H292 cells, FDA library drug in complete media
[18] = Complete minus Cholesterol-free, greater than 0 enhanced anti-cancer activity, about 0 neutral, below 0 antagonists
[19] = NCI-H292 cells in cholesterol-free media without statin
[20] = NCI-H292 cells in complete media
[21] = complete media vs cholesterol-free media + simvastatin (0.04 μM), >0 enhanced anti-cancer activity, about 0 neutral, <0 antagonist
[22] = NCI-H292 cells, cholesterol-free media with simvastatin 0.04 μM, cell growth value in FDA drug screen
[23] = NCI-H292 cells, complete media, cell growth value in FDA drug screen
[24] = complete vs cholesterol-free media, greater than 0 enhanced anti-cancer activity, about 0 neutral, below 0 antagonists
[25] = NCI-H292 cells, cholesterol-free media with simvastatin 0.04 μM, FDA drug library screen (TABLE 2)
[26] = NCI-H292 cells, complete media, FDA drug library screen (TABLE 2)
[27] = complete media minus cholesterol-free media + simvastatin (0.04 μM), >0 enhanced anti-cancer activity, about 0 neutral, <0 antagonist
[28] = NCI-H292 cells, cholesterol-free media with simvastatin 0.04 μM, […]
[29] = NCI-H292 cells, complete media, […]
[30] = complete media minus cholesterol-free media + simvastatin, […]
[31] = complete media minus cholesterol-free media + simvastatin (0.04 μM), […]
[32] = Complete minus Cholesterol-free, >0 enhanced anti-cancer activity, about 0 neutral, <0 antagonist

Compound: CN(C)CCC=C1c2ccccc2COc2ccccc21 [Doxepin (Hydrochloride)]
- Difference [1, 3]: −0.11
- Cholesterol-free [1, 4]: 1.23
- Complete [1, 5]: 1.122
- Cholesterol-free media + simvastatin (0.04 μM) [2, 6]: 0.8618
- Complete Media [2, 5]: 1.158
- Difference [2, 7]: 0.30

Compound: O=c1c(-c2ccc(O)cc2)coc2cc(O[C@@H]3O[C@H](CO)[C@@H](O)[C@H](O)[C@H]3O)ccc12 [Daidzin]
- Difference [1, 8]: −0.25
- Cholesterol-free [1, 9]: 1.084
- Complete ([1]; NCI-H292 cells, complete media): 0.8381
- Cholesterol-free media + simvastatin (0.04 μM) [2, 10]: 1.011
- Complete Media [2, 11]: 0.8061
- Difference [2, 12]: −0.20

Compound: CCC(=O)NCC[C@@H]1CCc2ccc3c(c21)CCO3 [Ramelteon]
- Difference [1, 3]: −0.10
- Cholesterol-free [1, 4]: 0.9442
- Complete [1, 5]: 0.8409
- Cholesterol-free media + simvastatin (0.04 μM) [2, 6]: 1.166
- Complete Media [2, 5]: 1.318
- Difference [2, 7]: 0.15

Compound: C[C@]12CC[C@H](O)CC1=CC[C@@H]1[C@@H]2CC[C@]2(C)C(=O)CC[C@@H]12 [DHEA]
- Cholesterol-free [1, 13]: 1.449
- Complete [1, 14]: 1.634
- Difference [1, 15]: 0.19
- Cholesterol-free media + simvastatin (0.04 μM) [2, 16]: 1.034
- Complete Media [2, 17]: 0.7371
- Difference [2, 12]: −0.30

Compound: CC(=O)c1ccc2c(c1)N(CCCN1CCC(CCO)CC1)c1ccccc1S2 [Piperacetazine]
- Difference [1, 18]: −0.82
- Cholesterol-free [1, 19]: 1.769
- Complete [1, 20]: 0.9455
- Cholesterol-free media + simvastatin (0.04 μM) [2, 6]: 1.088
- Complete Media [2, 5]: 0.9352
- Difference [2, 21]: −0.15

Compound: CCC[C@H](NC(=O)[C@@H]1[C@H]2CCC[C@H]2CN1C(=O)[C@@H](NC(=O)[C@@H](NC(=O)c1cnccn1)C1CCCCC1)C(C)(C)C)C(=O)C(=O)NC1CC1 [Telaprevir]
- Cholesterol-free [1, 9]: 1.55
- Complete ([1]; NCI-H292 cells, complete media): 1.165
- Difference [1, 15]: −0.39
- Cholesterol-free media + simvastatin (0.04 μM) [2, 6]: 1.084
- Complete Media [2, 5]: 0.9529
- Difference [2, 12]: −0.13

Compound: CCCCC1=NC2(CCCC2)C(=O)N1Cc1ccc(-c2ccccc2-c2nnn[nH]2)cc1 [Irbesartan]
- Difference [1, 3]: −0.08
- Cholesterol-free [1, 4]: 0.8711
- Complete [1, 5]: 0.7887
- Cholesterol-free media + simvastatin (0.04 μM) [2, 22]: 0.9096
- Complete Media [2, 23]: 0.9697
- Difference [2, 7]: 0.06

Compound: CNC(=O)c1cc(Oc2ccc(NC(=O)Nc3ccc(Cl)c(C(F)(F)F)c3)c(F)c2)ccn1 [Regorafenib (monohydrate)]
- Cholesterol-free [1, 9]: 1.026
- Complete ([1]; NCI-H292 cells, complete media): 0.6282
- Difference [1, 24]: −0.40
- Cholesterol-free media + simvastatin (0.04 μM) [2, 16]: 1.311
- Complete Media [2, 17]: 0.728
- Difference [2, 21]: −0.58

Compound: Cc1nc2c([nH]1)-c1ccccc1N(C(=O)c1ccc(NC(=O)c3ccccc3-c3ccccc3)cc1)CC2 [Conivaptan (hydrochloride)]
- Difference [1, 18]: −0.65
- Cholesterol-free [1, 19]: 1.641
- Complete [1, 20]: 0.989
- Cholesterol-free media + simvastatin (0.04 μM) [2, 6]: 1.147
- Complete Media [2, 5]: 1.002
- Difference [2, 21]: −0.15

Compound: Levamlodipine besylate
- Cholesterol-free [1]: 1.261
- Difference [1]: −0.22
- Cholesterol-free media + simvastatin (0.04 μM) [2]: 1.066
- Complete Media [2]: 0.9372
- Difference [2]: −0.13

Compound: Cc1c(Cl)c(C)[n+]([O-])c(Cl)c1-c1noc(-c2cc(O)c(O)c([N+](=O)[O-])c2)n1 [Opicapone]
- Difference [1, 3]: −0.13
- Cholesterol-free [1, 4]: 0.8861
- Complete [1, 5]: 0.7591
- Cholesterol-free media + simvastatin (0.04 μM) [2, 25]: 0.9346
- Complete Media [2, 26]: 0.8971
- Difference [2, 27]: −0.04

Compound: C[C@H]1C[C@H]2[C@@H]3CCC4=CC(=O)C=C[C@]4(C)[C@@]3(Cl)[C@@H](O)C[C@]2(C)[C@@]1(O)C(=O)CO [Beclometasone]
- Difference [1, 8]: −0.04
- Cholesterol-free [1, 13]: 1.244
- Complete [1, 14]: 1.205
- Cholesterol-free media + simvastatin (0.04 μM) [2, 28]: 0.7122
- Complete Media [2, 29]: 0.7656
- Difference [2, 30]: 0.05

Compound: Aprotinin
- Difference [1, 8]: −0.21
- Cholesterol-free [1, 9]: 0.7012
- Complete ([1]; NCI-H292 cells, complete media): 0.4863
- Cholesterol-free media + simvastatin (0.04 μM) [2, 25]: 0.8532
- Complete Media [2, 26]: 0.8102
- Difference [2, 31]: −0.04

Compound: Colistin (sulfate)
- Difference [1, 15]: 0.08
- Cholesterol-free media + simvastatin (0.04 μM) [2, 10]: 1.189
- Complete Media [2, 11]: 0.9801
- Difference [2, 12]: −0.21

Compound: Varenicline (Tartrate)
- Difference [1, 8]: −0.52
- Cholesterol-free [1, 19]: 1.334
- Complete [1, 20]: 0.8157
- Cholesterol-free media + simvastatin (0.04 μM) [2, 25]: 1.729
- Complete Media [2, 26]: 1.705
- Difference [2, 31]: −0.02

Compound: CCOc1ccc(Cc2cc([C@]34OC[C@](CO)(O3)[C@@H](O)[C@H](O)[C@H]4O)ccc2Cl)cc1 [Ertugliflozin]
- Difference [1, 3]: −0.08
- Cholesterol-free [1, 4]: 1.071
- Complete [1, 5]: 0.9907
- Cholesterol-free media + simvastatin (0.04 μM) [2, 22]: 1.703
- Complete Media [2, 23]: 1.808
- Difference [2, 7]: 0.10

Compound: CS(=O)(=O)OCCCCOS(C)(=O)=O [Busulfan]
- Difference [1, 32]: 0.07
- Cholesterol-free [1, 13]: 1.648
- Complete [1, 14]: 1.719
- Cholesterol-free media + simvastatin (0.04 μM) [2, 16]: 1.936
- Complete Media [2, 17]: 1.265
- Difference [2, 21]: −0.67

Compound: CN1CC2c3ccccc3Oc3ccc(Cl)cc3C2C1 (stereo not shown) [Asenapine]
- Cholesterol-free [1, 9]: 1.636
- Complete ([1]; NCI-H292 cells, complete media): 1.303
- Difference [1, 24]: −0.33
- Cholesterol-free media + simvastatin (0.04 μM) [2, 10]: 0.918
- Complete Media [2, 11]: 0.7002
- Difference [2, 21]: −0.22

Compound: Disodium succinate
- Cholesterol-free [1]: 1.636
- Complete [1]: 0.8171
- Difference [1]: −0.82
- Cholesterol-free media + simvastatin (0.04 μM) [2]: 1.636
- Complete Media [2]: 1.676
- Difference [2]: 0.04

Compound: COC(=O)Nc1nc2cc(C(=O)c3ccc(F)cc3)ccc2[nH]1 [Flubendazole]
- Cholesterol-free [1, 13]: 0.549
- Complete [1, 14]: 1.107
- Difference ([1]; complete vs cholesterol-free media, >0 enhanced anti-cancer activity, about 0 neutral, <0 antagonist): 0.56
- Cholesterol-free media + simvastatin (0.04 μM) [2, 25]: 1.122
- Complete Media [2, 26]: 1.079
- Difference [2, 27]: −0.04

Compound: Cc1ccccc1C(=O)Nc1ccc(C(=O)N2CCCC(O)c3cc(Cl)ccc32)c(C)c1 (stereo not shown) [Tolvaptan]
- Difference [1, 32]: −0.06
- Cholesterol-free [1, 13]: 0.8732
- Complete [1, 14]: 0.8126
- Cholesterol-free media + simvastatin (0.04 μM) [2, 16]: 2.102
- Complete Media [2, 17]: 1.367
- Difference [2, 21]: −0.73

Compound: Cn1ncnc1[C@H]1c2n[nH]c(=O)c3cc(F)cc(c23)N[C@@H]1c1ccc(F)cc1 [Talazoparib]
- Difference [1, 32]: −0.06
- Cholesterol-free [1, 13]: 0.2349
- Complete [1, 14]: 0.179
- Cholesterol-free media + simvastatin (0.04 μM) [2, 22]: 0.3041
- Complete Media [2, 23]: 0.3489
- Difference [2, 7]: 0.04

Compound: CCN(c1cc(-c2ccc(CN3CCOCC3)cc2)cc(C(=O)NCc2c(C)cc(C)[nH]c2=O)c1C)C1CCOCC1 [Tazemetostat (hydrobromide)]
- Difference [1, 18]: −0.47
- Cholesterol-free [1, 19]: 1.683
- Complete [1, 20]: 1.209
- Cholesterol-free media + simvastatin (0.04 μM) [2, 6]: 0.8785
- Complete Media [2, 5]: 1.469
- Difference [2, 7]: 0.59

Compound: Enasidenib (mesylate)
- Difference [1, 8]: −0.61
- Cholesterol-free [1, 19]: 1.538
- Complete [1, 20]: 0.9281
- Cholesterol-free media + simvastatin (0.04 μM) [2, 28]: 1.526
- Complete Media [2, 29]: 1.616
- Difference [2, 30]: 0.09

Compound: CCc1cc2c(cc1N1CCC(N3CCOCC3)CC1)C(C)(C)c1[nH]c3cc(C#N)ccc3c1C2=O [Alectinib]
- Difference [1, 32]: −0.21
- Cholesterol-free [1, 9]: 1.125
- Complete ([1]; NCI-H292 cells, complete media): 0.9146
- Cholesterol-free media + simvastatin (0.04 μM) [2, 16]: 1.385
- Complete Media [2, 17]: 1.02
- Difference [2, 21]: −0.37

Compound: CC(C)NC[C@H](O)COc1cccc2ccccc12.Cl [(S)-(−)-Propranolol (hydrochloride)]
- Difference [1, 18]: −0.61
- Cholesterol-free [1, 19]: 1.5
- Complete [1, 20]: 0.8879
- Cholesterol-free media + simvastatin (0.04 μM) [2, 25]: 1.665
- Complete Media [2, 26]: 1.663
- Difference [2, 27]: 0.00

Compound: CCOC(=O)C1=C[C@]2(CC)CCCN3CCc4c(n1c1ccccc41)[C@@H]32 [Vinpocetine]
- Difference [1, 3]: −0.09
- Cholesterol-free [1, 4]: 0.912
- Complete [1, 5]: 0.8209
- Cholesterol-free media + simvastatin (0.04 μM) [2, 22]: 0.854
- Complete Media [2, 23]: 0.8952
- Difference [2, 7]: 0.04

Compound: CC(O)c1cc(C(=O)N[C@@H](C)Cn2ccc(-c3ccc(C#N)c(Cl)c3)n2)[nH]n1 (stereo partly shown) [Darolutamide]
- Difference [1, 32]: −0.20
- Cholesterol-free [1, 9]: 1.263
- Complete ([1]; NCI-H292 cells, complete media): 1.061
- Cholesterol-free media + simvastatin (0.04 μM) [2, 22]: 0.9075
- Complete Media [2, 23]: 0.9966
- Difference [2, 7]: 0.09

Compound: Gadopentetate (dimeglumine)
- Difference [1, 8]: −0.06
- Cholesterol-free [1, 13]: 1.132
- Complete Media [2, 26]: 1.1
- Difference [2, 31]: −0.05
